# Results as given in patent publication US12338243B2, “P2X7 modulators” (JANSSEN PHARMACEUTICA NV, priority 2014, dated 2025).
# Where “and” joins values, the source holds several entries; their conditions need not be identical. Identical values can stand only once.
# How the values were obtained:
# [1] = Biodistribution studies of radiotracer in healthy female Wistar rats; type: in vivo; conditions: for % ID blood: blood mass assumed 7% of body mass; for SUV blood / % ID carcass / % ID cerebellum / SUV cerebellum / % ID cerebrum / SUV cortex / % ID heart / SUV hippocampus / % ID intestines / % ID kidneys / % ID liver / % ID lungs / SUV rest of cerebrum / % ID spleen + pancreas / % ID stomach / SUV striatum / % ID urine / SUV whole cerebrum: mean ± SD, n = 3
# Protocol: (§1) HPLC analysis was performed on a LaChrom Elite HPLC system (Hitachi, Armstadt, Germany) connected to a UV spectrometer set at 220 nm. For the analysis of radiolabeled compounds, the HPLC eluate, after passage through the UV detector, was led over a shielded 3-inch NaI(Tl) scintillation detector connected to a multichannel analyser (Gabi box, Raytest, Straubenhardt, Germany). The output signal was recorded and analysed using a GINA Star data acquisition system (Raytest, Straubenhardt, Germany). Radioactivity in samples of biodistribution studies, cell uptake experiments and radiometabolite analysis was quantified using an automated gamma counter equipped with a 3-inch NaI(Tl) well crystal coupled to a multichannel analyser (Wallac 2480 Wizard, Wallac, Turku, Finland). Results were corrected for background radiation, physical decay and counter dead time.
# Animals were housed in individually ventilated cages in a thermoregulated (˜22° C.), humidity-controlled facility under a 12 h/12 h light/dark cycle with access to food and water ad libitum. All animal experiments were conducted according to the Belgian code of practice for the care and use of animals, after approval from the KU Leuven University Ethics Committee for Animals.
# The biodistribution studies were performed in healthy female Wistar rats (body weight, 185-220 g) at 2, 30 and 60 min after tracer injection (n=3/time point). […] The animals were sacrificed by decapitation at the indicated time points. Blood and major organs were collected in tared tubes and weighed. The radioactivity in the dissected organs and blood was counted using an automated gamma counter. For calculation of total blood radioactivity, blood mass was assumed to be 7% of the body mass.
# [2] = Rat plasma radiometabolite analysis; type: in vivo; conditions: 30 min after radiotracer injection, n=2
# Protocol: as §1
# Radiometabolites of [^11C]55 in plasma of normal female Wistar rats (n=2) were quantified at 30 min after tracer injection. […] The fraction of more lipophilic radiometabolites eluting after the intact tracer was negligible (<1.5%).
structure (smiles),measurement,setting,value
"C[C@H]1Cn2c(nnc2-c2cc(O[11CH3])ccn2)CN1C(=O)c1cccc(Cl)c1Cl [[^11C]55, (S)-(2,3-dichlorophenyl)(3-(4-[^11C]methoxypyridin-2-yl)-6-methyl-5,6-dihydro-[1,2,4]triazolo[4,3-a]pyrazin-7(8H)-yl)methanone]",% ID blood,[1]; 2 min after tracer injection,10.0 % ID and 10.0 ± 2.4 % ID
same,SUV blood,[1]; 2 min after tracer injection,1.42 ± 0.3
same,% ID blood,[1]; 30 min after tracer injection,5.2 ± 0.6 % ID
same,SUV blood,[1]; 30 min after tracer injection,0.74 ± 0.1
same,% ID blood,[1]; 60 min after tracer injection,5.3 % ID and 5.3 ± 0.6 % ID
same,SUV blood,[1]; 60 min after tracer injection,0.75 ± 0.1
same,% ID carcass,[1]; 2 min after tracer injection,35.1 ± 4.1 % ID
same,% ID carcass,[1]; 30 min after tracer injection,46.9 ± 0.5 % ID
same,% ID carcass,[1]; 60 min after tracer injection,43.2 ± 5.3 % ID
same,% ID cerebellum,[1]; 2 min after tracer injection,0.1 ± 0.0 % ID
same,SUV cerebellum,[1]; 2 min after tracer injection,1.02 ± 0.1
same,% ID cerebellum,[1]; 30 min after tracer injection,0.1 ± 0.0 % ID
same,SUV cerebellum,[1]; 30 min after tracer injection,0.53 ± 0.0
same,% ID cerebellum,[1]; 60 min after tracer injection,0.1 ± 0.0 % ID
same,SUV cerebellum,[1]; 60 min after tracer injection,0.59 ± 0.1
same,% ID cerebrum,[1]; 2 min after tracer injection,0.5 ± 0.0 % ID
same,% ID cerebrum,[1]; 30 min after tracer injection,0.3 ± 0.0 % ID
same,% ID cerebrum,[1]; 60 min after tracer injection,0.3 ± 0.1 % ID
same,SUV cortex,[1]; 2 min after tracer injection,0.80 ± 0.2
same,SUV cortex,[1]; 30 min after tracer injection,0.58 ± 0.1
same,SUV cortex,[1]; 60 min after tracer injection,0.65 ± 0.1
same,% ID heart,[1]; 2 min after tracer injection,1.3 ± 0.2 % ID
same,% ID heart,[1]; 30 min after tracer injection,0.4 ± 0.0 % ID
same,% ID heart,[1]; 60 min after tracer injection,0.4 ± 0.1 % ID
same,SUV hippocampus,[1]; 2 min after tracer injection,0.74 ± 0.0
same,SUV hippocampus,[1]; 30 min after tracer injection,0.43 ± 0.0
same,SUV hippocampus,[1]; 60 min after tracer injection,0.52 ± 0.1
same,% ID intestines,[1]; 2 min after tracer injection,14.0 ± 1.8 % ID
same,% ID intestines,[1]; 30 min after tracer injection,23.8 ± 1.1 % ID
same,% ID intestines,[1]; 60 min after tracer injection,26.7 ± 9.1 % ID
same,% ID kidneys,[1]; 2 min after tracer injection,4.5 ± 0.8 % ID
same,% ID kidneys,[1]; 30 min after tracer injection,1.9 ± 0.1 % ID
same,% ID kidneys,[1]; 60 min after tracer injection,1.8 ± 0.2 % ID
same,injected dose retained in the liver and the intestines,"[1]; liver and intestines, 60 min after tracer injection",43.8%
same,% ID liver,[1]; 2 min after tracer injection,34.8 ± 2.1 % ID
same,% ID liver,[1]; 30 min after tracer injection,19.4 ± 0.5 % ID
same,% ID liver,[1]; 60 min after tracer injection,17.1 ± 0.3 % ID
same,% ID lungs,[1]; 2 min after tracer injection,2.1 ± 0.3 % ID
same,% ID lungs,[1]; 30 min after tracer injection,1.0 ± 0.1 % ID
same,% ID lungs,[1]; 60 min after tracer injection,1.1 ± 0.4 % ID
same,SUV rest of cerebrum,[1]; 2 min after tracer injection,0.86 ± 0.0
same,SUV rest of cerebrum,[1]; 30 min after tracer injection,0.46 ± 0.0
same,SUV rest of cerebrum,[1]; 60 min after tracer injection,0.53 ± 0.1
same,% ID spleen + pancreas,[1]; 2 min after tracer injection,1.4 ± 0.4 % ID
same,% ID spleen + pancreas,[1]; 30 min after tracer injection,0.6 ± 0.1 % ID
same,% ID spleen + pancreas,[1]; 60 min after tracer injection,0.6 ± 0.1 % ID
same,% ID stomach,[1]; 2 min after tracer injection,1.7 ± 0.3 % ID
same,% ID stomach,[1]; 30 min after tracer injection,2.1 ± 1.0 % ID
same,% ID stomach,[1]; 60 min after tracer injection,5.1 ± 3.4 % ID
same,SUV striatum,[1]; 2 min after tracer injection,0.78 ± 0.0
same,SUV striatum,[1]; 30 min after tracer injection,0.45 ± 0.0
same,SUV striatum,[1]; 60 min after tracer injection,0.50 ± 0.1
same,total initial brain uptake,"[1]; total brain, 2 min after injection",0.6%
same,total brain uptake,"[1]; total brain, 60 min after tracer injection",0.4%
same,% ID in urine and kidneys,"[1]; urine and kidneys, 60 min after injection",2.9 % ID
same,% ID urine,[1]; 2 min after tracer injection,0.1 ± 0.1 % ID
same,% ID urine,[1]; 30 min after tracer injection,0.9 ± 0.0 % ID
same,% ID urine,[1]; 60 min after tracer injection,1.1 ± 0.5 % ID
same,SUV whole cerebrum,[1]; 2 min after tracer injection,0.83 ± 0.0
same,SUV whole cerebrum,[1]; 30 min after tracer injection,0.46 ± 0.0
same,SUV whole cerebrum,[1]; 60 min after tracer injection,0.54 ± 0.1
same,recovered radioactivity in the plasma in the form of intact tracer,[2],70±6%
